Where two headings read alike, the source gives them in different places. Positions of bridges follow the written chain, without caps; N, C: chain ends. Residues, ends and D or L forms follow the SMILES beside them. Chains are numbered I, II in the order given. No end group written: not given here.
Tests used:
[1] = target: T1, PIG-tailed EPO-R (Homo sapiens, UniProt P19235); test: radioligand competition binding assay against PIG-tailed EPO-R immobilized on mAb179
T1 construct: comprised the extracellular domain of the EPO-receptor and was produced in recombinant host cells; thrombin cleavage site (internal); made in house
T1 sequence (P19235 25-250 limits assumed): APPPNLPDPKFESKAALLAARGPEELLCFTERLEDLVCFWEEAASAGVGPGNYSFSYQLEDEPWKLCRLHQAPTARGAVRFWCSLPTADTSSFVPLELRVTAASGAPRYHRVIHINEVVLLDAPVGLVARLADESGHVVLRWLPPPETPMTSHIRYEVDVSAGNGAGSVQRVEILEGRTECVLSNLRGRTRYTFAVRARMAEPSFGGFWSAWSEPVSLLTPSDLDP
Excerpt: The immobilized receptor used in the panning and ELISA procedures comprised the extracellular domain of the EPO-receptor and was produced in recombinant host cells. This receptor molecule can be produced in a variety of different forms and host cells. One useful form is constructed with a signal peptide for protein secretion and for glycophospholipid membrane anchor attachment (this form of anchor attachment is called "PIG-tailing;" see, Caras and Weddell, 3 March. 1989, Science 243:1196-1198; and Lin et al., 10 Aug. 1990, Science 249:677-679, each of which is incorporated herein by reference). This system allows for cleavage of the receptor from the surface of the cells expressing the receptor and collection of the cleaved receptor quite easily. Preferably, a protease cleavage site, such as a thrombin cleavage site, is inserted between the HPAP epitope of the PIG-tailed receptor and the receptor itself.
The recombinant receptor protein was immobilized using the following methodology. Microtiter plates were coated within an and-receptor antibody and the wells which were to contain the immobilized receptor were treated with bovine serum albumin (BSA) to block non-specific binding. The PIG-tailed receptor having a thrombin cleavage site was added to the coated wells of the microtiter plate, which were then washed to remove unbound receptor.
IC50s were calculated for several of the peptides falling within the general motifs described above. (Each of these peptides were independently synthesized and are C-terminally amidated, but could be easily prepared as the free carboxy acid or as an ester or other carboxy amide.)
This peptide was incubated with streptavidin in PBS at a 4:1 molar ratio at room temperature for one hour. Following this, the complex was introduced into the PIG-tailed EPO-R binding assay for IC50 determination. Peptide that had not been complexed to streptavidin was also run in the same experiment. […] Since this comparison was made using the free peptide concentrations and not the effective complex concentration (theoretically 4-fold lower), the effect will be even greater.
Figures 13 and 14 show the in vitro EPOR binding and biological activities of the dimer. The affinity of the dimer was tested against the PIG-tailed EPOR immobilized on mAb179 in strip wells.

[2] = system: FDCP-1/hEPO-R; settings: for increase in potency over the parental peptide: EC50 of dimer vs GGTYSCHFGPLTWVCKPQGG
Procedure: One assay utilized FDCP-1, a growth factor dependent murine multi-potential primitive hematopoietic progenitor cell line (see, e.g.. Dexter et al. (1980) J. Exp. Med. 152:1036-1047), as the parental cell line. This cell line can proliferate, but not differentiate, when supplemented with WEHI3-conditioned media (a medium that contains IL-3, ATCC number T1B68).
In brief, the cells are grown to half stationary density in the presence of the necessary growth factors. The cells are then washed in PBS and starved for 16-24 hours in whole media without the growth factors. After determining the viability of the cells, stock solutions (in whole media without the growth factors) are made to give about 10^5 cells per 50 microliters. […] Cells (50 microliters) are added to each well and the cells are incubated 24-48 hours, at which point the negative controls should die or be quiescent. Cell proliferation is then measured by techniques known in the art, such as an MTT assay which correlates with ^3H-thymidine incorporation as an indication of cell proliferation (see, Mosmann (1983) J. Immunol. Methods 65:55).
In addition, this peptide was preincubated with streptavidin in serum-free HEPES-buffered RPMI at a 4:1 molar ratio, as above. The complex was tested for stimulation of cell proliferation in an FDCP-1/hEPO-R bioassay alongside free […] (Ahx-biotin)) and the unbiotinylated parental peptide, i.e., […].

[3] = system: FDC-P1/ER (murine receptor); test: peptide dependent growth of EPO-responsive cell line FDC-P1/ER (thymidine incorporation); type: cell-based
Procedure: • a. […] Cell Proliferation Assay: • i. […] Peptide is added to each well in triplicate.

[4] = target: T2, extracellular domain of the human erythropoietin receptor (EPO binding protein, EBP) (Homo sapiens, UniProt P19235); test: immobilized EBP based [125I]EPO competition binding assay
T2 construct: made in house
T2 sequence (P19235 25-250 limits assumed): T1 sequence (P19235 25-250 limits assumed)
Procedure: The mixture was rocked gently for 30 minutes at room temperature, and the beads were allowed to settle for 1 hour at room temperature. The supernatant was removed and retained, and the beads were washed twice with 20 ml of coupling buffer.
Competitive binding analysis assays of candidate peptides were performed as outlined below. Individual peptides were dissolved in DMSO to prepare a stock solution of 1 mM. […] Initial assay points with no added peptide were included in each assay to determine total binding. Binding mixtures were incubated overnight at room temperature with gentle rocking. The beads were then collected using Micro-columns (Isolab, Inc., Akron, Ohio) and washed with 3 mL of wash buffer.

[5] = system: Female BDF1 mice; test: polycythemic exhypoxic mouse bioassay; type: in vivo; settings: approximate equivalency
Procedure: Female BDF1 mice (18-20 gms) are subjected to a conditioning cycle (in hypobaric chambers) of 18 hrs. at 0.40 ± 0.02 atm. and 6 hrs. at ambien pressure for a period of 14 days.
Mice are maintained at ambient pressure for 72 hrs prior to administration of r-HuEPO or test samples. Test samples or r-HuEPO standard are diluted for injection into conditioned mice. The vehicle consists of: PBS containing 0.1 % BSA (w/v). For each dilution, 0.5 ml is administered subcutaneously into each of 10 mice. ^59Fe is administered 48 hrs. later. Blood samples are taken 48 hrs. following administration of ^59Fe. Hematocrits and radioactivity measurements are determined for each sample. Dose range and results (two different assays) are set forth in Table 23 and Figures 17A-17C, infra.

[6] = free peptide, C-terminally amidated, read-out: IC50

Compound: CSCC[C@@H]1NC(=O)[C@H](CCCNC(=N)N)NC(=O)[C@@H](NC(=O)[C@H](Cc2c[nH]cn2)NC(=O)[C@H](Cc2ccc(O)cc2)NC(=O)[C@H](CC(=O)O)NC(=O)CNC(=O)CN)CSSC[C@@H](C(=O)N[C@@H](CCCCN)C(=O)N2CCC[C@H]2C(=O)N[C@@H](CC(C)C)C(=O)NCC(=O)NCC(N)=O)NC(=O)[C@H](C(C)C)NC(=O)[C@H](Cc2c[nH]c3ccccc23)NC(=O)[C@H]([C@@H](C)O)NC(=O)[C@H](CC(C)C)NC(=O)[C@@H]2CCCN2C(=O)CNC1=O (HELM PEPTIDE1{G.G.D.Y.H.C.R.M.G.P.L.T.W.V.C.K.P.L.G.G.[am]}$PEPTIDE1,PEPTIDE1,6:R3-15:R3$$$V2.0; N-terminus assumed)
- IC50 [1, 6]: 179 nM

Compound: CC(C)C[C@H](NC(=O)CNC(=O)CN)C(=O)N[C@@H](Cc1ccc(O)cc1)C(=O)N[C@@H](CC(C)C)C(=O)N[C@H]1CSSC[C@@H](C(=O)NCC(=O)N[C@@H](Cc2ccc(O)cc2)C(=O)N[C@@H](CCCCN)C(=O)NCC(=O)NCC(N)=O)NC(=O)[C@H](CC(=O)O)NC(=O)[C@H](Cc2c[nH]c3ccccc23)NC(=O)[C@H]([C@@H](C)O)NC(=O)[C@H](C(C)C)NC(=O)[C@@H]2CCCN2C(=O)CNC(=O)[C@H](Cc2ccccc2)NC(=O)[C@H](CCCNC(=N)N)NC1=O (HELM PEPTIDE1{G.G.L.Y.L.C.R.F.G.P.V.T.W.D.C.G.Y.K.G.G.[am]}$PEPTIDE1,PEPTIDE1,6:R3-15:R3$$$V2.0; N-terminus assumed)
- IC50 [1, 6]: 1670 nM

Compound: CC[C@H](C)[C@@H]1NC(=O)[C@@H]2CCCN2C(=O)CNC(=O)[C@H](CCSC)NC(=O)[C@H](CCCNC(=N)N)NC(=O)[C@@H](NC(=O)[C@H](C)NC(=O)[C@H](Cc2ccc(O)cc2)NC(=O)[C@@H](NC(=O)CNC(=O)CN)C(C)C)CSSC[C@@H](C(=O)N[C@@H](CO)C(=O)N2CCC[C@H]2C(=O)N[C@@H](CC(C)C)C(=O)NCC(=O)NCC(N)=O)NC(=O)[C@H](C(C)C)NC(=O)[C@H](Cc2c[nH]c3ccccc23)NC(=O)[C@H]([C@@H](C)O)NC1=O (HELM PEPTIDE1{G.G.V.Y.A.C.R.M.G.P.I.T.W.V.C.S.P.L.G.G.[am]}$PEPTIDE1,PEPTIDE1,6:R3-15:R3$$$V2.0; N-terminus assumed)
- IC50 [1, 6]: 352 nM

Compound: CC[C@H](C)[C@@H]1NC(=O)[C@@H]2CCCN2C(=O)CNC(=O)[C@H](Cc2ccccc2)NC(=O)[C@H](Cc2c[nH]cn2)NC(=O)[C@@H](NC(=O)[C@H](CCSC)NC(=O)[C@H](Cc2ccc(O)cc2)NC(=O)[C@H](CC(N)=O)NC(=O)CNC(=O)[C@@H](N)C(C)C)CSSC[C@@H](C(=O)N[C@@H](CCCNC(=N)N)C(=O)N2CCC[C@H]2C(=O)NCC(=O)NCC(=O)NCC(N)=O)NC(=O)[C@H](C(C)C)NC(=O)[C@H](Cc2c[nH]c3ccccc23)NC(=O)[C@H]([C@@H](C)O)NC1=O (HELM PEPTIDE1{V.G.N.Y.M.C.H.F.G.P.I.T.W.V.C.R.P.G.G.G.[am]}$PEPTIDE1,PEPTIDE1,6:R3-15:R3$$$V2.0; N-terminus assumed)
- IC50 [1, 6]: 420 nM

Compound: CC(C)C[C@@H]1NC(=O)[C@@H]2CCCN2C(=O)CNC(=O)[C@H](Cc2ccccc2)NC(=O)[C@H](Cc2c[nH]cn2)NC(=O)[C@@H](NC(=O)[C@H](CO)NC(=O)[C@H](Cc2ccc(O)cc2)NC(=O)[C@@H](NC(=O)CNC(=O)CN)[C@@H](C)O)CSSC[C@@H](C(=O)N[C@@H](CCCCN)C(=O)N2CCC[C@H]2C(=O)N[C@@H](CCC(N)=O)C(=O)NCC(=O)NCC(=O)N[C@@H](CO)C(=O)N[C@@H](CO)C(=O)N[C@@H](CCCCNC(=O)CCCCCNC(=O)CCCC[C@@H]2SC[C@@H]3NC(=O)N[C@@H]32)C(N)=O)NC(=O)[C@H](C(C)C)NC(=O)[C@H](Cc2c[nH]c3ccccc23)NC(=O)[C@H]([C@@H](C)O)NC1=O [AF11505] (HELM PEPTIDE1{G.G.T.Y.S.C.H.F.G.P.L.T.W.V.C.K.P.Q.G.G.S.S.K.[am]}|PEPTIDE2{[O=C1N[C@H]2[C@H](CS[C@H]2CCCCC(=O)[*:2])N1].[O=C(CCCCCN[*:1])[*:2]]}$PEPTIDE1,PEPTIDE2,23:R3-2:R2|PEPTIDE1,PEPTIDE1,6:R3-15:R3$$$V2.0; N-terminus and C-terminus assumed; bridges inferred)
- EPO-ED50 ([2]; free peptides): approximately 1 µM

Compound: CC(C)C[C@@H]1NC(=O)[C@@H]2CCCN2C(=O)CNC(=O)[C@H](Cc2ccccc2)NC(=O)[C@H](Cc2c[nH]cn2)NC(=O)[C@@H](NC(=O)[C@H](CO)NC(=O)[C@H](Cc2ccc(O)cc2)NC(=O)[C@@H](NC(=O)CNC(=O)CN)[C@@H](C)O)CSSC[C@@H](C(=O)N[C@@H](CCCCN)C(=O)N2CCC[C@H]2C(=O)N[C@@H](CCC(N)=O)C(=O)NCC(=O)NCC(N)=O)NC(=O)[C@H](C(C)C)NC(=O)[C@H](Cc2c[nH]c3ccccc23)NC(=O)[C@H]([C@@H](C)O)NC1=O [RWJ 61233] (HELM PEPTIDE1{G.G.T.Y.S.C.H.F.G.P.L.T.W.V.C.K.P.Q.G.G.[am]}$PEPTIDE1,PEPTIDE1,6:R3-15:R3$$$V2.0)
- EPO-ED50 [3]: 0.1 µM
- IC50 ([1]; equilibrium competition binding assay, strip wells, read-out: affinity): 200 nM
- IC50 [1, 6]: 237 nM
- IC50 [4]: 5 µM
- EC50 [2]: 400 nM

Compound: I: GGTYSCHFGPLTWVCKPQGGK-NH2 / II: GGTYSCHFGPLTWVCKPQGG (disulfide I:6-I:15, II:6-II:15 (inferred); amide I:21-II:C (inferred); C-terminus assumed) [AF12080]
- increase over the value for the parental peptide ([1]; affinity vs GGTYSCHFGPLTWVCKPQGG): 200 fold
- increase over the streptavidin complex ([1]; affinity vs GGTYSCHFGPLTWVCKPQGGSSK (Ahx-biotin)-streptavidin complex): 5 fold
- increase in potency over the parental peptide [2]: approximately 20 fold
- increase in potency over the parental peptide ([2]; listed as dimeric peptide analog of GGTYSCHFGPLTWVCKPQGG): 20 fold
- Amount of Peptide Equivalent to 0.025 units of EPO [5]: 0.035 nmol

Compound: TIAQYICYMGPETWECRPSPKA [AF11654]
- Amount of Peptide Equivalent to 0.025 units of EPO [5]: 11 to 21 nmol

Compound: VGNYMAHMGPITWVCRPGG-NH2
- IC50 [1, 6]: 67000 nM

Reference: patent EP0886648B1 (ORTHO PHARMACEUTICAL CORPORATION, priority 1995, dated 1996)
